According to patent US20080242688A1, “Method 741” (ASTRAZENECA AB, priority 2007, published 2008):

Legend:
[1] = Mass balance of [14C]-AZD0328 in rats; type: in vivo, rat
Procedure: In the mass balance study conducted in fed rats, a Tmax of 0.5 h to 1 h was observed following single and multiple oral doses (solution). The bioavailability of AZD0328 (total radioactivity) in this study was >90%. […] Generally speaking, the elimination was complete within the 24-hour interval at the dose levels tested.
Pharmacokinetics and mass balance of [^14C]-AZD0328 were investigated in rats. The excretion of [^14C]-AZD0328-derived radioactivity in rats was mainly through the kidney. Over the course of the study, radioactivity recovered in urine and feces accounted for approximately 85% and 8%, respectively.

Rat QWBA study = type: in vivo; details: single oral dose
Procedure: AZD0328 is a low protein binding molecule across species including human (<15%) across the concentration range 21.6 to […] (0.1 to 100 μM). In most species, the binding was concentration and gender independent. […] [14C]-AZD0328-derived radioactivity was rapidly distributed to the organs and tissues with high levels of radioactivity associated with the contents of the GI tract and the major excretion organs, including kidney and liver. The radioactivity declined rapidly and by 168 h postdose radioactivity levels were not detectable in most tissues, with the exception of a few ocular tissues and nasal turbinates. […] Notable association of [^14C]-AZD0328-related radioactivity with the melanin-containing tissues was observed, with measurable radioactivity still present in the ocular tissues at 216 h postdose. [14C]-AZD0328-derived radioactivity crossed the placenta.

[2] = Pharmacological activity of metabolite
Procedure: Pyridinyl methylation of AZD0328 was a unique polar metabolite (M2) observed in dog hepatocytes. Other minor hydroxylation/oxidation and glucuronide conjugation products were detected in monkey, dog, rat, and guinea pig hepatocyte incubations and mini-pig hepatic microsome incubations. […] Analysis of plasma and urine samples from either orally or iv dosed rats confirmed N-oxide product of AZD0328 was a main product in the excretion and circulation. The percentage of AZD0328 N-oxide in the plasma from male rats was much higher than from females.

Question: Which “radioactivity recovered in feces” value [1] does the source give for `c1cnc2c(c1)C[C@@]1(CN3CCC1CC3)O2` [[^14C]-AZD0328] here?
Answer: The value was roughly 8%.

Question: What about the “radioactivity recovered in urine” value [1] of the same compound?
Answer: Its value is “approximately 85%”.

Question: What about the “time of maximum blood and plasma concentrations of radioactivity” value (Rat QWBA study) of the same compound?
Answer: The value was 0.5 h.

Question: For `[O-][N+]12CCC(CC1)C1(Cc3cccnc3O1)C2` (stereo not shown) [quinuclidinyl-N-oxide of AZD0328], which “pharmacological activity of metabolite” value [2] is on record?
Answer: Its value is “pharmacological inactive”.
